The record followed here is patent US9493446B2, “Orexin receptor antagonists which are [ortho bi-(hetero-)aryl]-[2-(meta bi-(hetero-)aryl)-pyrrolidin-1-yl]-methanone derivatives” (Actelion Pharmaceuticals Ltd, priority 2012, dated 2016).

For one test, the target named is human orexin-2 receptor (Homo sapiens (Human), UniProt O43614). Nature of the test: Intracellular calcium measurement (FLIPR), CHO cells expressing human orexin-2 receptor, 3 nM orexin-A. The format is cell-based. Conditions: read-out: IC50 OX2. The gist of the method:
(§1)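 Antagonist is added 120 min before agonist. Fluo-4 AM-loaded CHO cells carry human orexin-1 or orexin-2 receptor, and calcium is read by FLIPR.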

A further test deals with orexin-1 (Homo sapiens (Human), UniProt O43613). Nature of the test: Intracellular calcium measurement (FLIPR), CHO cells expressing human orexin-1 receptor, 3 nM orexin-A. The format is cell-based. As to conditions: read-out: IC50 OX1. The gist of the method:
as §1

The mark [1] stands for this setting: CHO cells expressing human orexin-2 receptor, FLIPR, 3 nM orexin-A, geometric mean if determined several times.
The mark [2] stands for this setting: CHO cells expressing human orexin-1 receptor, FLIPR, 3 nM orexin-A, geometric mean if determined several times.

Where two headings read alike, the source gives them in different places.

orexin-1, sequence (O43613 whole entry): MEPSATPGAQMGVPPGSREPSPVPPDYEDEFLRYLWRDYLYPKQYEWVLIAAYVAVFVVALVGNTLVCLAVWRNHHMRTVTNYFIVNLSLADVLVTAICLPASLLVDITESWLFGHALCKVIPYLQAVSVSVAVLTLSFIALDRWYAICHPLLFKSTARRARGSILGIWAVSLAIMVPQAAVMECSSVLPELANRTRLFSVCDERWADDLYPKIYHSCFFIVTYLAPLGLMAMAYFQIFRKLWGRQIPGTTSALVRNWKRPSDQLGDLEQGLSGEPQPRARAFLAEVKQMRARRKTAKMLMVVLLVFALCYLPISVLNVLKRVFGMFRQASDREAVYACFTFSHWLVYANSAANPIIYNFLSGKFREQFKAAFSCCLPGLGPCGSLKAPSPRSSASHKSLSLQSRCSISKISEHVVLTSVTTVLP
human orexin-2 receptor, sequence (O43614 whole entry): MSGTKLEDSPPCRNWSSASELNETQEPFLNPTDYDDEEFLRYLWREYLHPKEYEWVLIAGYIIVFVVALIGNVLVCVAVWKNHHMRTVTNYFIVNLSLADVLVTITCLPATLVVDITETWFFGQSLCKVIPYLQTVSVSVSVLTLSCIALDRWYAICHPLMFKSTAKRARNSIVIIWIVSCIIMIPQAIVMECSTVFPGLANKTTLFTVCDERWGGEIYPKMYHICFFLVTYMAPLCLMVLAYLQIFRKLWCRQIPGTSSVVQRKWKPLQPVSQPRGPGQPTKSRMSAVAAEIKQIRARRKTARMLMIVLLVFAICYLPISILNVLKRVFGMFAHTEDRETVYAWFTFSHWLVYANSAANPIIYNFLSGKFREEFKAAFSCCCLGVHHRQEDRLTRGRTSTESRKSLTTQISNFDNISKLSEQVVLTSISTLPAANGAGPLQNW

Turning to `Cc1ccc(-n2nccn2)c(C(=O)N2CCC[C@H]2c2ncc(-c3ccccc3)[nH]2)c1` [compound 527, (5-Methyl-2-[1,2,3]triazol-2-yl-phenyl)-[(S)-2-(5-phenyl-1H-imidazol-2-yl)-pyrrolidin-1-yl]-methanone], the IC50 on human orexin-2 receptor (setting [1]) amounted to 109 nM; at orexin-1 (setting [2]), 389 nM.

Regarding `Cc1cc(C(=O)N2CCC[C@H]2c2nc(-c3ccccc3OC(F)F)no2)c(-n2nccn2)cc1C` [compound 188, {(S)-2-[3-(2-Difluoromethoxy-phenyl)-[1,2,4]oxadiazol-5-yl]-pyrrolidin-1-yl}-(4,5-dimethyl-2-[1,2,3]triazol-2-yl-phenyl)-methanone], the half-inhibitory concentration (IC50) at human orexin-2 receptor (setting [1]) turned out to be 3 nM; on orexin-1 (setting [2]) it was 20 nM.

On to `Cc1c(Cl)cccc1-c1noc([C@@H]2CCCN2C(=O)c2ccc(Cl)cc2-n2nccn2)n1` [compound 121], for which the half-maximal inhibitory concentration (IC50) turned out to be 15 nM on human orexin-2 receptor (setting [1]) and 145 nM on orexin-1.

For `COc1ccc(C)cc1-c1nc([C@@H]2CCCN2C(=O)c2ccc(Cl)cc2-n2nccn2)no1` [compound 381], the 50% inhibitory concentration (IC50) at human orexin-2 receptor (setting [1]) is 28 nM; at orexin-1 (setting [2]), 136 nM.

With `CCOc1c(F)cccc1-c1nc([C@@H]2CCCN2C(=O)c2cc(OC)c(Cl)cc2-n2nccn2)no1` [compound 369], the IC50 was found to be 2 nM on human orexin-2 receptor (setting [1]) and 15 nM on orexin-1 (setting [2]).

As for “Thiophen-2-yl-[(S)-2-(3-o-tolyl-[1,2,4]oxadiazol-5-yl)-pyrrolidin-1-yl]-methanone [Reference compound 3, reference compound]”, the results for the half-inhibitory concentration (IC50) at human orexin-2 receptor and on orexin-1 (setting [2]) were 34 nM and 182 nM, respectively.

As for `CCOc1c(F)cccc1-c1noc([C@@H]2CCCN2C(=O)c2ccc(C)cc2-n2nccn2)n1` [compound 289, {(S)-2-[3-(2-Ethoxy-3-fluoro-phenyl)-[1,2,4]oxadiazol-5-yl]-pyrrolidin-1-yl}-(4-methyl-2-[1,2,3]triazol-2-yl-phenyl)-methanone], the half-inhibitory concentration (IC50) on human orexin-2 receptor (setting [1]) worked out at 37 nM; on orexin-1 (setting [2]) it was 44 nM.

As to `Cc1ccc(-n2nccn2)c(C(=O)N2CCC[C@H]2c2nc(-c3ccccc3C(F)(F)F)no2)c1` [compound 29, (5-Methyl-2-[1,2,3]triazol-2-yl-phenyl)-{(S)-2-[3-(2-trifluoromethyl-phenyl)-[1,2,4]oxadiazol-5-yl]-pyrrolidin-1-yl}-methanone], the IC50 was found to be 39 nM at human orexin-2 receptor (setting [1]) and 249 nM at orexin-1 (setting [2]).

For the compound `Cc1ccc(C(=O)N2CCC[C@H]2c2nc(-c3ccccc3OC(F)(F)F)no2)c(-n2nccn2)c1C` [compound 271, (3,4-Dimethyl-2-[1,2,3]triazol-2-yl-phenyl)-{(S)-2-[3-(2-trifluoromethoxy-phenyl)-[1,2,4]oxadiazol-5-yl]-pyrrolidin-1-yl}-methanone], the results for the concentration for half-maximal inhibition (IC50) at human orexin-2 receptor (setting [1]) and at orexin-1 (setting [2]) were 189 nM and 69 nM, respectively.

As to `Cc1cccc(-c2nnc([C@@H]3CCCN3C(=O)c3cc(C)ccc3-n3nccn3)o2)c1` [Example 438, (5-Methyl-2-[1,2,3]triazol-2-yl-phenyl)-[(S)-2-(5-m-tolyl-[1,3,4]oxadiazol-2-yl)-pyrrolidin-1-yl]-methanone], the IC50 on human orexin-2 receptor (setting [1]) came to 359 nM; at orexin-1 (setting [2]), 1490 nM.

For `COc1ccc(C)c(-c2nc([C@@H]3CCCN3C(=O)c3ccc(Cl)cc3-n3nccn3)no2)c1` [compound 419], the concentration for half-maximal inhibition (IC50) on human orexin-2 receptor turned out to be 16 nM; on orexin-1 (setting [2]) it was 207 nM.

As to `Cc1ccc(-n2nccn2)c(C(=O)N2CCC[C@H]2c2nc(-c3ccccc3)co2)c1` [Example 459, (5-Methyl-2-[1,2,3]triazol-2-yl-phenyl)-[(S)-2-(4-phenyl-oxazol-2-yl)-pyrrolidin-1-yl]-methanone], the IC50 at human orexin-2 receptor (setting [1]) stood at 295 nM; at orexin-1 (setting [2]), 129 nM.

In the case of `C[C@@]1(c2nc(-c3ccccc3)no2)CCCN1C(=O)c1ccccc1-n1nccn1` [Example 537, [(S)-2-Methyl-2-(3-phenyl-[1,2,4]oxadiazol-5-yl)-pyrrolidin-1-yl]-(2-[1,2,3]triazol-2-yl-phenyl)-methanone], the IC50 on human orexin-2 receptor (setting [1]) is 2880 nM; at orexin-1 (setting [2]) it was 3980 nM.
